We go through five molecules from ChEMBL document CHEMBL3259565 (ACS Med Chem Lett, 2014).

As usually defined, the IC50 is the concentration that gives 50% inhibition. Read a low IC50 as higher potency. Broadly, the inhibition is the relative decrease from the control value, in per cent.

Assay [1] has as its target T1, Histone-lysine N-methyltransferase EHMT1 (Homo sapiens, UniProt Q9H9B1).
T1 sequence (Q9H9B1 whole entry): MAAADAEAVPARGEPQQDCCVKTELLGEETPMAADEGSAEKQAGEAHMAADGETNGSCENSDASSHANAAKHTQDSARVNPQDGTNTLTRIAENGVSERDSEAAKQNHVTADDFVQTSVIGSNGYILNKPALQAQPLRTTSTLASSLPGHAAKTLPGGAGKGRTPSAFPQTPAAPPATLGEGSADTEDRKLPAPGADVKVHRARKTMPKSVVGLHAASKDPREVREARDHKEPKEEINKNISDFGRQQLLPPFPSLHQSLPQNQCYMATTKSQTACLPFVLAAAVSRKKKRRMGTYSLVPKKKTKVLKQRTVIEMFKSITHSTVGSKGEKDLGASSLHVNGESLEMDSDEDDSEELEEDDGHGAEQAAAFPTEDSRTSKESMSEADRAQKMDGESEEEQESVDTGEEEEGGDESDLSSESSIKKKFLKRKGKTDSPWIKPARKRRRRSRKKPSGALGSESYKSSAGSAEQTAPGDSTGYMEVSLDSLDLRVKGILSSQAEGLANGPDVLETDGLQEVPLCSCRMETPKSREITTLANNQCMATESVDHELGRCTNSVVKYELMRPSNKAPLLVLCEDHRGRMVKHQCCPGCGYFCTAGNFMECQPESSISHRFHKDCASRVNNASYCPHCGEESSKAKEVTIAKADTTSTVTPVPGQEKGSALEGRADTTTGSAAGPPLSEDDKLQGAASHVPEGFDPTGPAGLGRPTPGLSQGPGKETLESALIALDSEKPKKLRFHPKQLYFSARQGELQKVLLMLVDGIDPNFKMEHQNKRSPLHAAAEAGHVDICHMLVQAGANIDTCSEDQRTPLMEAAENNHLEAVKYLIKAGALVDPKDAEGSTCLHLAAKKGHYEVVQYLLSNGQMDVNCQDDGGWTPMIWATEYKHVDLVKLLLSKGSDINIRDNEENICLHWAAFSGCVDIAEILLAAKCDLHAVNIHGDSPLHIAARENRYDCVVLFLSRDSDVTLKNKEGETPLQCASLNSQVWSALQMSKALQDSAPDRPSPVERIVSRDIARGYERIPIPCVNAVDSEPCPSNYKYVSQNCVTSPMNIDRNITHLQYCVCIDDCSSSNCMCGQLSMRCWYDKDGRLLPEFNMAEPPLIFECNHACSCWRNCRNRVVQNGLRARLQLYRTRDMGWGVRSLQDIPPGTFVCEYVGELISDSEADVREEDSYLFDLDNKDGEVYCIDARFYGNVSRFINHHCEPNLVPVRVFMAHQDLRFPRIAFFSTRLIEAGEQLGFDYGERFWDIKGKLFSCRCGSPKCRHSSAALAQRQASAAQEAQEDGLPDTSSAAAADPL
The experiment in a line: Inhibition of methyltransferase activity of EHMT1 (unknown origin)-mediated dimethylation of a biotinylated histone H3 peptide at lysine-9 by FRET-based LANCE ultra G9a assay. On the technique in general: In TR-FRET formats the signal depends on donor and acceptor labels being close together.

In assay [2] the target is T2, Histone-lysine N-methyltransferase EHMT1 (Homo sapiens) (UniProt Q9H9B1).
T2 sequence (whole entry): T1 sequence (Q9H9B1 whole entry)
As to the kind of experiment: Inhibition of methyltransferase activity of EHMT1 (unknown origin)-mediated dimethylation of a biotinylated histone H3 peptide at lysine-9 at 100 uM by FRET-based LANCE ultra G9a assay.

For assay [3], the target named is T3, Histone-lysine N-methyltransferase EHMT2 (Homo sapiens, UniProt Q96KQ7).
T3 sequence (Q96KQ7 whole entry): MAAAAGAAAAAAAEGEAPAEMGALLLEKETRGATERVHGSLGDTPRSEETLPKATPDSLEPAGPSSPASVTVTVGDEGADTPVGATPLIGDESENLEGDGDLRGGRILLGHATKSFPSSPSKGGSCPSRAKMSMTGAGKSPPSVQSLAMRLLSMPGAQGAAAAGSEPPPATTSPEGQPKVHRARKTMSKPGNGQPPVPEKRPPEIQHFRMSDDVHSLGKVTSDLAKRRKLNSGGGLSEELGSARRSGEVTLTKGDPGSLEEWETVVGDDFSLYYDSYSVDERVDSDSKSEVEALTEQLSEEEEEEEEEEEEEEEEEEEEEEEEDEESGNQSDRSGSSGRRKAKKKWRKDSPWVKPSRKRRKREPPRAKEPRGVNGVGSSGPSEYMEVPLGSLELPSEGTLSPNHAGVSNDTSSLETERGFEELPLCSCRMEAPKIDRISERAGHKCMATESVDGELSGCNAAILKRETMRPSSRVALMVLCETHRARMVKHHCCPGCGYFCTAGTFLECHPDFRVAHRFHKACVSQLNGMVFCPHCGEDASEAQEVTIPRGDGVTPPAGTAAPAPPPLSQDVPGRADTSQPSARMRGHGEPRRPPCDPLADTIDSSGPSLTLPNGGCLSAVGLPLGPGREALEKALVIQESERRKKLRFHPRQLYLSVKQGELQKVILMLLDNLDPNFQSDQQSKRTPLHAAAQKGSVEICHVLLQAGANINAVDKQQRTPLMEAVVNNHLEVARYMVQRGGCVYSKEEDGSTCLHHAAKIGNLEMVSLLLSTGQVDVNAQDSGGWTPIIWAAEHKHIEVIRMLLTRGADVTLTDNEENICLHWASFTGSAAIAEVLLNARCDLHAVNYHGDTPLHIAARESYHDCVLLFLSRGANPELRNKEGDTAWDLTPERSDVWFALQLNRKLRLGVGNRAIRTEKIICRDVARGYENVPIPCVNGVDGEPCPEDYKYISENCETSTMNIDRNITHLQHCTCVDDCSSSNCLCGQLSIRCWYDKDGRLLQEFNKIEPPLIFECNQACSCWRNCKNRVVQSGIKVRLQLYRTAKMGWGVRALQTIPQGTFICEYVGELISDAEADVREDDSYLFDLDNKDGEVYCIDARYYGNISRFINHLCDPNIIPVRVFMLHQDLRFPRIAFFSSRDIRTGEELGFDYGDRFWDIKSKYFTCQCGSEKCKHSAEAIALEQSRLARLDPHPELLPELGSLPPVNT
As to the kind of experiment: Inhibition of methyltransferase activity of EHMT2 (unknown origin)-mediated dimethylation of a biotinylated histone H3 peptide at lysine-9 by FRET-based LANCE ultra G9a assay.

In assay [4] the target is Protein arginine N-methyltransferase 1 (Homo sapiens) (UniProt Q99873). As to the kind of experiment: Inhibition of PRMT1 (unknown origin) at 200 uM.
Assay [5] has as its target T4, DNA (cytosine-5)-methyltransferase 1 (Homo sapiens, UniProt P26358). As to the kind of experiment: Inhibition of DNMT1 (unknown origin).
For assay [6], the target named is T2, Histone-lysine N-methyltransferase EHMT1 (Homo sapiens). The experiment in a line: Non-competitive inhibition of methyltransferase activity of EHMT1 (unknown origin).
Assay [7] has as its target T5, Histone-lysine N-methyltransferase EHMT2 (Homo sapiens) (UniProt Q96KQ7).
T5 sequence (whole entry): T3 sequence (Q96KQ7 whole entry)
As to the kind of experiment: Non-competitive inhibition of methyltransferase activity of EHMT2 (unknown origin).

Assay [8] deals with T6, Histone-lysine N-methyltransferase SETD7 (Homo sapiens) (UniProt Q8WTS6).
T6 sequence (whole entry): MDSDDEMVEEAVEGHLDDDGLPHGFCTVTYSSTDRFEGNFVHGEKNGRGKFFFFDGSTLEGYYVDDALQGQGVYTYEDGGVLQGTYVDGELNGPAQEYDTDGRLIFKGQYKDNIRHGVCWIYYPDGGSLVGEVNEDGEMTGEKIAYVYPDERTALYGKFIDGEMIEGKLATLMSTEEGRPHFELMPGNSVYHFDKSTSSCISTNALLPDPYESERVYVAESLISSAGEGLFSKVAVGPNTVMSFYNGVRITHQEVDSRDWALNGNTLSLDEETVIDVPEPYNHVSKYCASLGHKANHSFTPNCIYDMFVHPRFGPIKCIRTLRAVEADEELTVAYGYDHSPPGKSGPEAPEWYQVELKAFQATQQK
The experiment in a line: Inhibition of SET7/9 (unknown origin) at 200 uM.

The target in assay [9] is T4, DNA (cytosine-5)-methyltransferase 1. As to the kind of experiment: Inhibition of DNMT1 (unknown origin) at 200 uM.

Activity calls are given as the source filed them. The calls are words filed in the database; no cut-off is given here.

Protein arginine N-methyltransferase 1 (Homo sapiens), sequence (Q99873 whole entry, looked up): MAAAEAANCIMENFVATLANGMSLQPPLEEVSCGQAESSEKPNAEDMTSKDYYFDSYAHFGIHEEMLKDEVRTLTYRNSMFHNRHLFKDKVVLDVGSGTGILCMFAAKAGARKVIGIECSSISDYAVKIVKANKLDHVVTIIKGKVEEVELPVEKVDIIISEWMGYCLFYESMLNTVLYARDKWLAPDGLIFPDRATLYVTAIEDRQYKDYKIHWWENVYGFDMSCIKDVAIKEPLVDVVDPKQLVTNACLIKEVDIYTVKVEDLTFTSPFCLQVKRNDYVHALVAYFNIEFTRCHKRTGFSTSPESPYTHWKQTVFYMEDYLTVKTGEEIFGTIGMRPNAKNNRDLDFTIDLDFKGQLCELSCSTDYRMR
T4 sequence (P26358 whole entry): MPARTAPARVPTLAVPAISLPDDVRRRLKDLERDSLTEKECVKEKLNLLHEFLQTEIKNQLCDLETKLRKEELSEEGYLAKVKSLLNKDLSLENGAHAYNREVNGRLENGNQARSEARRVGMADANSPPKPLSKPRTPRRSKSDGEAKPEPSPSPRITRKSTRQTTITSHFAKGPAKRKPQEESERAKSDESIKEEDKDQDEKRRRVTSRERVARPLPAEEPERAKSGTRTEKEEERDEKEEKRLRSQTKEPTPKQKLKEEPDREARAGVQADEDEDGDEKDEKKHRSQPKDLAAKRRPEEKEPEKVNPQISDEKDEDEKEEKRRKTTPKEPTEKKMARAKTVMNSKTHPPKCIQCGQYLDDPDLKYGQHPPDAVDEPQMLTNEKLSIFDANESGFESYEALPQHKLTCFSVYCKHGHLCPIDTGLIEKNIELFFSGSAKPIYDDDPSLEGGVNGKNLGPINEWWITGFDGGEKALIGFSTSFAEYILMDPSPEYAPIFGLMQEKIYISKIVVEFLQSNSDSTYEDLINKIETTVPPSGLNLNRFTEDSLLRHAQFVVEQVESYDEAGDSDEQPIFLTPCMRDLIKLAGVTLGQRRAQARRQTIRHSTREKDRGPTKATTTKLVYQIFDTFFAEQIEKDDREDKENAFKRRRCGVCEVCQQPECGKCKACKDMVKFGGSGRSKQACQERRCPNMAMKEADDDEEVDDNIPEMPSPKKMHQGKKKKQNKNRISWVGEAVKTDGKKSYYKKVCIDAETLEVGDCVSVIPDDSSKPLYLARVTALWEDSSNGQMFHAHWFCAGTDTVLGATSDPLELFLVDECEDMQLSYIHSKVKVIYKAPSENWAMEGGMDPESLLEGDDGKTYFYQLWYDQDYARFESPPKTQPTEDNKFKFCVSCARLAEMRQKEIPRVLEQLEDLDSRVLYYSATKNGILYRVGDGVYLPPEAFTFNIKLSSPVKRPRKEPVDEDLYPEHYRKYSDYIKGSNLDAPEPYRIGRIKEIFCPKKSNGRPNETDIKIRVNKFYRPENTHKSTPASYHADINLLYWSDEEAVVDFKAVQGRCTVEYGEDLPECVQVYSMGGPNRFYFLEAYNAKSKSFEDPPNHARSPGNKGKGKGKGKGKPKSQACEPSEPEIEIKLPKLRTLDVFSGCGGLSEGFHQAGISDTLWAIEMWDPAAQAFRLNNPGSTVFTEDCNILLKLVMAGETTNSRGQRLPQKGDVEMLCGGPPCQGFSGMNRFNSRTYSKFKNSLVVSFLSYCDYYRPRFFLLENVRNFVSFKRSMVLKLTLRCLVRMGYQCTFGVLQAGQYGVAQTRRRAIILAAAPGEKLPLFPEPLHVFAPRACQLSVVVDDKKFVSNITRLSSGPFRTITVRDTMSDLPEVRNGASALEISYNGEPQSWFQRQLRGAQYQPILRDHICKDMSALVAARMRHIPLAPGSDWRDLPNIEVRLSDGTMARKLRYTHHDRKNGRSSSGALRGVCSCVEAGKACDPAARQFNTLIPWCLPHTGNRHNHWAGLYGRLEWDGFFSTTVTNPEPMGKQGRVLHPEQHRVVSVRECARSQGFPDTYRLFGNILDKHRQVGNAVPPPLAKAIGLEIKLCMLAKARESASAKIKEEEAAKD

In the case of `Nc1ncnc2c1ncn2[C@@H]1O[C@H](CCCc2ccccc2)[C@@H](O)[C@H]1O`, the values for the IC50 in [1] and in [3] were 235 µM and 190 µM, respectively. In assay [2], the inhibition is above 40%.
In the case of `COc1ccc(CC(N)C[C@H]2O[C@@H](n3cnc4c(N)ncnc43)[C@H](O)[C@@H]2O)cc1OC` (stereo partly drawn), the figures for the IC50 in assay [1] and in assay [3] were 147 µM and 157 µM, respectively. In addition, the inhibition in assay [2] was above 40%.
With `Nc1ncnc2c1ncn2[C@@H]1O[C@H](CC(N)CC2CCCCC2)[C@@H](O)[C@H]1O` (stereo partly drawn), the IC50 stood at 1.5 µM in [1], 179 µM in assay [5] and 1.6 µM in assay [3]. The molecule further had an inhibition in [2] above 40%. For the same molecule, the inhibition result in assay [4] and in assay [8] was “inactive” throughout. The inhibition result in assay [6] and in [7] was “Active” each time.
As for `Nc1ncnc2c1ncn2[C@@H]1O[C@H](C[C@@H](N)CC[C@H](N)C(=O)O)[C@@H](O)[C@H]1O` [SINEFUNGIN], half-maximal inhibition in assay [1] (IC50) required 513 µM.
Consider `CCCCC[C@H]1O[C@@H](n2cnc3c(N)ncnc32)[C@H](O)[C@@H]1O`, for which the inhibition entry in assay [9], in [4] and in [8] was “inactive” in each case. Moreover, the IC50 was found to be 87 µM in [1] and 103 µM in assay [3]. The same molecule yielded an inhibition in assay [2] above 40%. Moreover, the inhibition result in [6] and in assay [7] was “Active” throughout.
